Data from ChEMBL document CHEMBL3045756, “Design, synthesis, antifungal activity, and ADME prediction of functional analogues of terbinafine” (Med Chem Res, 2009).
Converted amounts (≈) assume the structure as drawn.

How the values were obtained:
Candida albicans = experiment: Antifungal activity against Candida albicans NCIM 3557 after 48 hr by agar streak dilution method; assay type: functional; details: NCIM 3557, 48 h
[1] = Acute toxicity in po dosed Mus musculus (mouse); assay type: organism-based; details: in vivo

Row | SMILES | MIC (Candida albicans) | LD50 [1]
1 | CN(Cc1nc2cc([N+](=O)[O-])ccc2[nH]1)Cc1cccc2cccnc12 | 25 µg/mL (≈ 72 µM) | > 2000 mg/kg
2 | CN(Cc1ccc2ccccc2c1)Cc1cccc2cccnc12 | 8 µg/mL (≈ 25.6 µM) | > 2000 mg/kg
3 | CN(Cc1cc2ccccc2o1)Cc1cccc2cccnc12 | > 100 µg/mL | –
4 | CN(Cc1nc2ccccc2[nH]1)Cc1cccc2cccnc12 | 40 µg/mL (≈ 132 µM) | –
5 | CN(Cc1ccc(Cl)cc1)Cc1cccc2cccnc12 | 75 µg/mL (≈ 253 µM) | –
6 | Cc1ccc2[nH]c(CN(C)Cc3cccc4cccnc34)nc2c1 | > 100 µg/mL | –
7 | CN(Cc1ccc(-c2ccccc2C#N)cc1)Cc1cccc2cccnc12 | > 100 µg/mL | –
8 | CN(Cc1nc2cc(Cl)ccc2[nH]1)Cc1cccc2cccnc12 | 10 µg/mL (≈ 29.7 µM) | > 2000 mg/kg
9 | CN(Cc1cccc2cccnc12)Cc1cccc2cccnc12 | 4 µg/mL (≈ 12.8 µM) | 700 mg/kg
10 | CN(Cc1ccc([N+](=O)[O-])cc1)Cc1cccc2cccnc12 | 25 µg/mL (≈ 81.3 µM) | > 2000 mg/kg
